# Experimental data from US12679836B2, “4H-pyrrolo[3,2-c]pyridin-4-one compounds” (Bayer Aktiengesellschaft, priority 2019, dated 2026).
# Read-outs that look alike come from different tables or passages of the source.
# Key:
# [1] = target: T1, EGFR with insertion of SVD between D770 and N771 (EGFR ins SVD) (Homo sapiens, UniProt P00533, DUP768-770); assay: Exon20-Mutant-EGFR(D770_N771insSVD) kinase assay (TR-FRET); assay type: biochemical; details: 2 mM ATP, several values per example where printed
# T1 construct: made in house; host or cells: Sf9 insect cells (baculovirus)
# T1 sequence (P00533 with tags, fused parts or gaps DUP768-770): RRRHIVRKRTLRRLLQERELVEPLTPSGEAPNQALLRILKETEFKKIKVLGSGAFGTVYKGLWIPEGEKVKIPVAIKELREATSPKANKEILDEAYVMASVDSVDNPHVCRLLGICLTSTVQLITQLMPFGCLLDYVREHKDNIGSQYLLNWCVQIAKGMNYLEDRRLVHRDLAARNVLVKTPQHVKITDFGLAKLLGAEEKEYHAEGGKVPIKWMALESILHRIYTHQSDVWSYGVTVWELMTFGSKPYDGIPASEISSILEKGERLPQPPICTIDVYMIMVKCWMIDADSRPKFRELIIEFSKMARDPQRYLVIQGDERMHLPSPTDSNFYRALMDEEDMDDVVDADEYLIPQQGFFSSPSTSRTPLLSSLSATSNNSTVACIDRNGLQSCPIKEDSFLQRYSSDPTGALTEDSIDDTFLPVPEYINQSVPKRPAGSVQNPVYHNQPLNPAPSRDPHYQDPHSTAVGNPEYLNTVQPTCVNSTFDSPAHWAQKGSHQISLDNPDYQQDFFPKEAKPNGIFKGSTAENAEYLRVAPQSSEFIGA
# Bub1 = target: T2, Bub1 (Homo sapiens, UniProt O43683); assay: Bub1 TR-FRET high ATP kinase assay; assay type: biochemical; details: 2 mM ATP
# T2 construct: catalytic domain of human Bub1 (amino acids 704-1085); His6 (N); made in house; host or cells: Hi5 insect cells
# T2 sequence (O43683 704-1085): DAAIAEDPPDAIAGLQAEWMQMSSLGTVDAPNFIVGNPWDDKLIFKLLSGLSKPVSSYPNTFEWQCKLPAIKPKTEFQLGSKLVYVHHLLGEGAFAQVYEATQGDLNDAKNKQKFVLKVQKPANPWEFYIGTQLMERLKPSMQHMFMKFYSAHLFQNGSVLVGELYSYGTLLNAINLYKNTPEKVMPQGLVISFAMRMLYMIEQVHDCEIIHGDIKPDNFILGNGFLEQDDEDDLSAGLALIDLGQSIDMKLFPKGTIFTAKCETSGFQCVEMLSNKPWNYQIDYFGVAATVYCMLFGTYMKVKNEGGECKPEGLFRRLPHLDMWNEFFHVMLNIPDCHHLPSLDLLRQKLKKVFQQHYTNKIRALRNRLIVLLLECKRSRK
# Method in brief: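 Recombinant His6-tagged human Bub1 catalytic domain (aa 704-1085), from Hi5 insect cells, phosphorylating a biotinylated peptide substrate at high ATP concentration. TR-FRET read-out.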
# Ba/F3-EGFR-insSVD cells = Ba/F3-EGFR-insSVD cells (Homo sapiens, UniProt P00533, DUP768-770, cells depend on it); assay: Ba/F3 cell survival assay (Cell Titer-Glo), EGFR-insSVD; assay type: cell-based; details: without IL-3, with 10 ng/mL EGF, 48 h; read-out: BA/F3 (insSVD) IC50
# Sequence of Ba/F3-EGFR-insSVD cells (P00533 with tags, fused parts or gaps DUP768-770): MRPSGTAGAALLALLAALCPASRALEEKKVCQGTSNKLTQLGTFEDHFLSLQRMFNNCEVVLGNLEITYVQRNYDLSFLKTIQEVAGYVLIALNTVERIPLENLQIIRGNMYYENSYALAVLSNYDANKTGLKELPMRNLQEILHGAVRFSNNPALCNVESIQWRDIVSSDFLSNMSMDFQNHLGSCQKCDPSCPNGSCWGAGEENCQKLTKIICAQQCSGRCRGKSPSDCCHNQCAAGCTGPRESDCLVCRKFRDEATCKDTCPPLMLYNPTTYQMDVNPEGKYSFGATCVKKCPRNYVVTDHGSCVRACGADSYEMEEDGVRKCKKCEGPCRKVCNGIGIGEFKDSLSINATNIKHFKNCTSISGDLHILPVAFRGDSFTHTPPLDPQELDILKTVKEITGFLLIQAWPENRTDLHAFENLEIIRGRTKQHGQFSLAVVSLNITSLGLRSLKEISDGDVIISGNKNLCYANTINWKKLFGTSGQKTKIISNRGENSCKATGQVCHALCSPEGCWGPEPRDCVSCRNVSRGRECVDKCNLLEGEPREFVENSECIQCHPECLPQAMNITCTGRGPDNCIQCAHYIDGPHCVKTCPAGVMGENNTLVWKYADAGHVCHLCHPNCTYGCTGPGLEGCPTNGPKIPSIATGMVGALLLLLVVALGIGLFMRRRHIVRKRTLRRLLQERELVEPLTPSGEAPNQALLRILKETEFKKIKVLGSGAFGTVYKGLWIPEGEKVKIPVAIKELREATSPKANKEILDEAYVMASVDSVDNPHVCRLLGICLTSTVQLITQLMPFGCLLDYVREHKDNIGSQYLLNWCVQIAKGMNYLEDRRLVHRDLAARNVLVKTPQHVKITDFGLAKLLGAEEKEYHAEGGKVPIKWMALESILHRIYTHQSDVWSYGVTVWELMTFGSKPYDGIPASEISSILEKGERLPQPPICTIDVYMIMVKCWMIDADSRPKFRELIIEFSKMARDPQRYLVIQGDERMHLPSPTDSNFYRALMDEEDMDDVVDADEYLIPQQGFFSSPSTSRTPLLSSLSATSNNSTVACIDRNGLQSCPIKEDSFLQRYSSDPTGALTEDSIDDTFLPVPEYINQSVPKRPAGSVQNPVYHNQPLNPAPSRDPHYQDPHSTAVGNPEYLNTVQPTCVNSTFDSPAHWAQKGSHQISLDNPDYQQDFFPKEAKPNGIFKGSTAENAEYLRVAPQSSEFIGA
# Method in brief: (§1)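 Ba/F3 cells stably expressing WT EGFR or EGFR-insSVD from retroviral transduction were grown without IL-3 on 10 ng/mL EGF. Cells were plated at 4000 cells/well, treated with compound for 48 h at 37° C, and viability was read by CellTiter-Glo luminescence.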
# Ba/F3-EGFR-WT cells = Ba/F3-EGFR-WT cells (Homo sapiens, UniProt P00533); assay: Ba/F3 cell survival assay (Cell Titer-Glo), WT EGFR; assay type: cell-based; details: without IL-3, with 10 ng/mL EGF, 48 h; read-out: BA/F3 (wild type) IC50
# Sequence of Ba/F3-EGFR-WT cells (P00533 whole entry, change not shown): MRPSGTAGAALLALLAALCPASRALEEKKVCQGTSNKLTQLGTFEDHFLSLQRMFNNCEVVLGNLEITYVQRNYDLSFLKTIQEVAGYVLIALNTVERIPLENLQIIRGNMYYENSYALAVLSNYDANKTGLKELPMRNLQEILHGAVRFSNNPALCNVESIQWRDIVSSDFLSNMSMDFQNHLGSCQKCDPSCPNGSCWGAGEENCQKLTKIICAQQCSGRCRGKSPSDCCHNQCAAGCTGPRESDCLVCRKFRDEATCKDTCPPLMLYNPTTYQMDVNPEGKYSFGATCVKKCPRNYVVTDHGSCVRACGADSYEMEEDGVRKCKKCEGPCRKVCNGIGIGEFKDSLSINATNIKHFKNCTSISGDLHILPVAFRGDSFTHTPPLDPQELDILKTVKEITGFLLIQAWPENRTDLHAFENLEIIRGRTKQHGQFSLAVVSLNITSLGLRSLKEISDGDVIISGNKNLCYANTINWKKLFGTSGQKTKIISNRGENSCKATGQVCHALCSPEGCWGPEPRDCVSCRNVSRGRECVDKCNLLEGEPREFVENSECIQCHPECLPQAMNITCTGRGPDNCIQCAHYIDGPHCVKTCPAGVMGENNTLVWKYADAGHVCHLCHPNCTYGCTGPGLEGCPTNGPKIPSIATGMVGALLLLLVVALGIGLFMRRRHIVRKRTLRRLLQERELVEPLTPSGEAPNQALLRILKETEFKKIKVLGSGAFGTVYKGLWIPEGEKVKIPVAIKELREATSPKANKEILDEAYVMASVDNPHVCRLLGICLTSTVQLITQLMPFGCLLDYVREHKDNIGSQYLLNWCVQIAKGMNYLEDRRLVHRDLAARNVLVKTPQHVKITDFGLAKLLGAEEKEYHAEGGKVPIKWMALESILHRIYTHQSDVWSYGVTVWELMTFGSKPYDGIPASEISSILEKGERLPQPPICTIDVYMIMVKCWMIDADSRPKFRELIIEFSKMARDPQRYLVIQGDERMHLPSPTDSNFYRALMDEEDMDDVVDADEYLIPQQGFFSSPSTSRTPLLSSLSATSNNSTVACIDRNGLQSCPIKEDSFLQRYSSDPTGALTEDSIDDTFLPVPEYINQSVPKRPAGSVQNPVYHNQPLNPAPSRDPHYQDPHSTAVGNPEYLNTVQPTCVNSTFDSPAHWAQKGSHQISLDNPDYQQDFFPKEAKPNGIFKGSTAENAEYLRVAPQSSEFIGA
# Method in brief: as §1
# [2] = target: Ba/F3-EGFR-E746_A750del cells (Homo sapiens, UniProt P00533, DEL746-750, cells depend on it); assay: Ba/F3 cell survival assay, EGFR E746_A750del; assay type: cell-based; details: without IL-3, without EGF, 48 h; read-out: BA/F3 (EGFR E746_A750del) IC50
# Procedure: (§2) 293T cells from ATCC were transfected with pBABEpuro expression constructs for mutant EGFR (V769_D770insASV, D770_N771insNPG, N771_P772insH, H773_V774insNPH, E746_A750del, L858R, D770_N771insSVD C797S, E746_A750del C797S, L858R C797S, L861Q) or mutant ERBB2 (A775_G776insYVMA) and pCL-Eco packaging vector using Fugene-6 transfection reagent from Promega. Plates were incubated at 37° C. for 48 h. Retrovirus was harvested by filtering the media supernatant through a 0.45 μm filter.
# (§3) Ba/F3 cells purchased from DSMZ were grown in RPMI+10% FBS+10 ng/mL IL-3 and infected with filtered retroviral supernatant at a 1:2 dilution. Polybrene was added to a concentration of 8 μg/mL, plates were spun for 90 min, and incubated overnight at 37° C. 2 μg/mL puromycin was added to the infected cells 24 h after infection and cells were continually grown in the presence of puromycin and 10 ng/mL IL-3. Following stably expressing Ba/F3 cell lines were generated: Ba/F3-EGFR-V769_D770insASV, Ba/F3-EGFR-D770_N771insNPG, Ba/F3-EGFR-N771_P772insH, Ba/F3-EGFR-H773_V774insNPH, Ba/F3-EGFR-E746_A750del, Ba/F3-EGFR-L858R, Ba/F3-EGFR-D770_N771 insSVD C797S, Ba/F3-EGFR-E746_A750del C797S, Ba/F3-EGFR-L858R C797S, Ba/F3-EGFR L861Q and Ba/F3-ERBB2-A775_G776insYVMA (Ba/F3-vector-control).
# (§4) For cell survival assays, Ba/F3 cells were grown to a density of 1-2 million cells per mL, spun down and resuspended in media without IL-3, and replated at a concentration 200,000-500,000 cells per mL. The cells ectopically expressing WT EGFR plated with 10 ng/mL Millipore Culture grade EGF and Ba/F3 cells containing mutant EGFR or Mutant ERBB2 were cultivated without EGF. The cells ectopically expressing pBABEpuro empty vector were plated with 10 ng/mL IL-3.
# (§5) 2 days later, cells were plated in 50 μL in a 384 well plate at a concentration of 4000 cells per well for cells assayed in the absence of IL-3 and 2000 cells per well for cells assayed in the presence of IL-3. 100 nL of compound was added to each well using a 100 nL pin head, and plates were incubated at 37° C. for 48 h.
# (§6) Cell viability was measured by adding 20 μL of Cell Titer-Glo Luminescent Cell Viability Reagent diluted 1:3 in PBS. Plates were sealed with Perkin Elmer Top-Seal, inverted several times to mix, and immediately centrifuged at 1000 rpm for 2 min. Plates were incubated in low light conditions for 8-10 min and luminescence was measured.
# Ba/F3-EGFR-L858R cells = Ba/F3-EGFR-L858R cells (Homo sapiens, UniProt P00533, L858R, cells depend on it); assay: Ba/F3 cell survival assay, EGFR L858R; assay type: cell-based; details: without IL-3, without EGF, 48 h; read-out: BA/F3 (EGFR L858R) IC50
# Sequence of Ba/F3-EGFR-L858R cells (P00533 whole entry L858R): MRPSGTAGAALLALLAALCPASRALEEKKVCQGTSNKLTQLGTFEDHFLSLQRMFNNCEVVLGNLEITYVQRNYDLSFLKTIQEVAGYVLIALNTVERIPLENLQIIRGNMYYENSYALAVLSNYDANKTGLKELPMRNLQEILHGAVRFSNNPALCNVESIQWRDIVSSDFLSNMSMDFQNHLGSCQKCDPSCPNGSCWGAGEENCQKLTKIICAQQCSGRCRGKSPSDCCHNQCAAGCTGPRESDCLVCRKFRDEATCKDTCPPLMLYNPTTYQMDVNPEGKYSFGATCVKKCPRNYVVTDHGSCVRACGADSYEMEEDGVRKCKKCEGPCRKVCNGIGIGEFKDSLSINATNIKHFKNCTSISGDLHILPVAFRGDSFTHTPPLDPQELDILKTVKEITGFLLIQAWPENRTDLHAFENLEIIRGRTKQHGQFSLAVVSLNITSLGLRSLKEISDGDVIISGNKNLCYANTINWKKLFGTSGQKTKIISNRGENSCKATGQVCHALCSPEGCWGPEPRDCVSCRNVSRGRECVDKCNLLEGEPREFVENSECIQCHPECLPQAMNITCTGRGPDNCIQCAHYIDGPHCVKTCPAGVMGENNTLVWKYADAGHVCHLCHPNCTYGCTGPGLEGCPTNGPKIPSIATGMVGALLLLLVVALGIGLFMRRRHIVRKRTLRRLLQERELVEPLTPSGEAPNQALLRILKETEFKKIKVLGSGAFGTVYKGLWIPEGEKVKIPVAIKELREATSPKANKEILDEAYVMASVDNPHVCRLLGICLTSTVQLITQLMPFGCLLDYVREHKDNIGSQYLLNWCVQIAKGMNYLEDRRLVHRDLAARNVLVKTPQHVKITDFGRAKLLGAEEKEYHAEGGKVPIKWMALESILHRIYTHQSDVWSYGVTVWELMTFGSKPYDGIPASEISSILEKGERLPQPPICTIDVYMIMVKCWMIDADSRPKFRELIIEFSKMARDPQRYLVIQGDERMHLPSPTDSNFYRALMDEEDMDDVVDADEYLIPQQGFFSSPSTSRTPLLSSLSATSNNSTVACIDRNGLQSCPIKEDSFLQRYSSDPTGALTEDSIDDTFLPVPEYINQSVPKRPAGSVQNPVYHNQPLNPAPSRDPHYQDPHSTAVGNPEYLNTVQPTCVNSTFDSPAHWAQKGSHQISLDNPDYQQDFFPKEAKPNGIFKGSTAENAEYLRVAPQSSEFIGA
# Procedure: as §2, §3, §4, §5, §6
# Ba/F3-EGFR L861Q cells = Ba/F3-EGFR L861Q cells (Homo sapiens, UniProt P00533, L861Q, cells depend on it); assay: Ba/F3 cell survival assay, EGFR L861Q; assay type: cell-based; details: without IL-3, without EGF, 48 h; read-out: BA/F3 (EGFR L861Q) IC50
# Procedure: as §2, §3, §4, §5, §6
# [3] = Bub1 high ATP (2 mM) IC50 [mol/l]
SMILES,mutEGFR (D770_N771insSVD) kinase assay IC50 [1],IC50 (Bub1; [3]),IC50 (Bub1; read-out: Bub1 high ATP (2 mM) IC50 [mol/l]),GI50 (Ba/F3-EGFR-insSVD cells),GI50 (Ba/F3-EGFR-WT cells),GI50 [2],GI50 (Ba/F3-EGFR-L858R cells),GI50 (Ba/F3-EGFR L861Q cells)
"CCc1c(Cl)cccc1Nc1c(-c2ccncc2OCC2CN(C)CCO2)[nH]c2c1C(=O)NCC2 (stereo not shown) [Example 29, 3-(3-chloro-2-ethylanilino)-2-{3-[(4-methylmorpholin-2-yl)methoxy]pyridin-4-yl}-1,5,6,7-tetrahydro-4H-pyrrolo[3,2-c]pyridin-4-one]",0.547 nM,17200 nM,,33.6 nM,621 nM,0.332 nM,0.964 nM,16.2 nM
"O=C1NCCc2[nH]c(-c3ccncc3OCC3COCCO3)c(Nc3cccc(Cl)c3Cl)c21 (stereo not shown) [Example 7, 3-(2,3-dichloroanilino)-2-{3-[(1,4-dioxan-2-yl)methoxy]pyridin-4-yl}-1,5,6,7-tetrahydro-4H-pyrrolo[3,2-c]pyridin-4-one]",0.137 nM,10600 nM,,18 nM,292 nM,,,
"COc1c(Cl)cccc1Nc1c(-c2ccncc2OC[C@H]2COCCN2C)[nH]c2c1C(=O)NCC2 [Example 11, 3-(3-chloro-2-methoxyanilino)-2-(3-{[(3R)-4-methylmorpholin-3-yl]methoxy}pyridin-4-yl)-1,5,6,7-tetrahydro-4H-pyrrolo[3,2-c]pyridin-4-one]",0.286 nM,4330 nM,,18.7 nM,701 nM,,,
"COc1c(Cl)cccc1Nc1c(-c2ccncc2OCC2CN(C)CCO2)[nH]c2c1C(=O)NCC2 (single isomer, unassigned) [Example 16, 3-(3-chloro-2-methoxyanilino)-2-(3-{[4-methylmorpholin-2-yl]methoxy}pyridin-4-yl)-1,5,6,7-tetrahydro-4H-pyrrolo[3,2-c]pyridin-4-one]",0.228 nM,> 20000 nM,,126 nM,1050 nM,,,
"COc1c(Cl)cccc1Nc1c(-c2ccncc2O[C@@H](C)C2COCCO2)[nH]c2c1C(=O)NCC2 (mixture of isomers) [Example 57, 3-(3-chloro-2-methoxyanilino)-2-{3-[(1S)-1-(1,4-dioxan-2-yl)ethoxy]pyridin-4-yl}-1,5,6,7-tetrahydro-4H-pyrrolo[3,2-c]pyridin-4-one]",0.269 nM,14000 nM,,28 nM,539 nM,,,

# Second part, led by results:
mutEGFR (D770_N771insSVD) kinase assay IC50 [1],IC50 (Bub1; [3]),IC50 (Bub1; read-out: Bub1 high ATP (2 mM) IC50 [mol/l]),SMILES,GI50 (Ba/F3-EGFR-insSVD cells),GI50 (Ba/F3-EGFR-WT cells),GI50 [2],GI50 (Ba/F3-EGFR-L858R cells),GI50 (Ba/F3-EGFR L861Q cells)
0.256 nM,11300 nM,,"COc1c(F)cccc1Nc1c(-c2ccncc2OCC2COCCO2)[nH]c2c1C(=O)NCC2 (stereo not shown) [Example 4, 2-{3-[(1,4-dioxan-2-yl)methoxy]pyridin-4-yl}-3-(3-fluoro-2-methoxyanilino)-1,5,6,7-tetrahydro-4H-pyrrolo[3,2-c]pyridin-4-one]",19.5 nM,452 nM,,,
0.168 nM,,> 20000 nM,"CCc1c(F)cccc1Nc1c(-c2ccncc2OCC2COC(C)(C)CO2)[nH]c2c1C(=O)NCC2 (single isomer, unassigned) [Example 70, 2-(3-{[5,5-dimethyl-1,4-dioxan-2-yl]methoxy}pyridin-4-yl)-3-(2-ethyl-3-fluoroanilino)-1,5,6,7-tetrahydro-4H-pyrrolo[3,2-c]pyridin-4-one]",67.9 nM,714 nM,,,
0.4 nM,19000 nM,,"COc1c(F)cccc1Nc1c(-c2ccncc2OC[C@H]2COCCN2C)[nH]c2c1C(=O)NCC2 [Example 37, 3-(3-fluoro-2-methoxyanilino)-2-(3-{[(3R)-4-methylmorpholin-3-yl]methoxy}pyridin-4-yl)-1,5,6,7-tetrahydro-4H-pyrrolo[3,2-c]pyridin-4-one]",35.7 nM,348 nM,,,
0.0794 nM,> 20000 nM,,"COc1c(F)cccc1Nc1c(-c2ccncc2OCC2CN(C)CCO2)[nH]c2c1C(=O)NCC2 (stereo not shown) [Example 12, 3-(3-fluoro-2-methoxyanilino)-2-{3-[(4-methylmorpholin-2-yl)methoxy]pyridin-4-yl}-1,5,6,7-tetrahydro-4H-pyrrolo[3,2-c]pyridin-4-one]",22.8 nM,574 nM,,,
0.213 nM,> 20000 nM,,"COc1c(F)cccc1Nc1c(-c2ccncc2OCC2COC(C)(C)CO2)[nH]c2c1C(=O)NCC2 (single isomer, unassigned) [Example 33, 2-(3-{[5,5-dimethyl-1,4-dioxan-2-yl]methoxy}pyridin-4-yl)-3-(3-fluoro-2-methoxyanilino)-1,5,6,7-tetrahydro-4H-pyrrolo[3,2-c]pyridin-4-one]",102 nM,557 nM,,,
